pIC50: −log10 of the molar value. Entries after “also recorded” stand apart in the source; their conditions may differ.
Legend:
15-LOX = target: T1, 15-LOX (Glycine max, UniProt P08170); experiment: In vitro 15-LOX inhibition assay (lipoxygenase inhibitor screening kit, Cayman); assay type: biochemical
T1 construct: purchased Cayman chemicals 760700
T1 sequence (P08170 1-839): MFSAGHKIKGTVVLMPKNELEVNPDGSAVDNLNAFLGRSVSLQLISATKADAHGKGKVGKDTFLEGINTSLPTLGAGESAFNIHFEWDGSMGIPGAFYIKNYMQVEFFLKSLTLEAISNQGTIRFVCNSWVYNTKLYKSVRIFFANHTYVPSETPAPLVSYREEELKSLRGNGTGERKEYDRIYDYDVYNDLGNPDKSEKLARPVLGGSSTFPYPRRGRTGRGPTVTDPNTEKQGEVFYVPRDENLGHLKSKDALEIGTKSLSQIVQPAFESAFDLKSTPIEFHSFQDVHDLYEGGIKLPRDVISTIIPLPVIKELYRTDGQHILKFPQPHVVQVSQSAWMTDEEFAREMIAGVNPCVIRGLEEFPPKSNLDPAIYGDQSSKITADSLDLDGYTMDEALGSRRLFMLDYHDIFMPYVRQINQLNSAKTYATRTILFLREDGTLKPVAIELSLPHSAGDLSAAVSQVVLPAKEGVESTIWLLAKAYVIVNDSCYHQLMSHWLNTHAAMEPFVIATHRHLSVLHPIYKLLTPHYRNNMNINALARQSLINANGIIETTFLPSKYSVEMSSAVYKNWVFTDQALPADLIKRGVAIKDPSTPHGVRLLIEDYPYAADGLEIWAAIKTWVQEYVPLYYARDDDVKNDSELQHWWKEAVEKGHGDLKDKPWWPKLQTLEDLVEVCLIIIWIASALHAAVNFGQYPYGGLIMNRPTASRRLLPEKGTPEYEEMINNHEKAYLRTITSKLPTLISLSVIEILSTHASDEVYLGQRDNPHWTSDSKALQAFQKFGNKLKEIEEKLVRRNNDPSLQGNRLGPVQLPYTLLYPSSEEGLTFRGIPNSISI
Description: (§1) Both assays were carried out in compliance with the manufacturer’s instructions and in accordance to prior studies[29]^,[33].
(§2) IC50 values (μM) and selectivity indices (SI) were calculated.

[1] = tested on: PMA/LPS-stimulated THP-1 (M1 macrophages); experiment: Cytotoxicity assay on differentiated M1 macrophages (MTS); assay type: cell-based, human; conditions: PMA 24 h, LPS 24 h, then compound 24 h; up to 100 μM
Description: To confirm that the previous observations were a consequence of interference of the compounds with the differentiation process rather than a reduction in monocyte viability, THP-1 monocytes were incubated with different concentrations of the compound for 30 h. No difference in cell viability was detected. Moreover, the cytotoxic effects of the drugs on differentiated macrophages were evaluated. Following the incubation of THP-1 cells with 25 nM PMA for 24 h and 100 ng/ml LPS for 24 h, the differentiated macrophages were treated with different concentrations of the compounds for 24 h. Cell viability was assessed using MTS colorimetric cell viability kit (Abcam, Cambridge, UK).

[2] = tested on: formalin-induced rat paw oedema; experiment: Formalin-induced paw oedema test (acute inflammation model); assay type: in vivo, Wistar rats; conditions: oral 5 mg/kg once daily for seven days; oedema 4 h after formalin; vs diclofenac sodium and celecoxib 5 mg/kg
Description: A freshly prepared 5% formalin solution (prepared from 37% formaldehyde and saline (Merck, Germany)) was used as a phlogistic agent. Test and reference compounds (5 mg/kg body weight) were dissolved in DMSO and given orally with gastric gavage once per day for seven consecutive days, whereas DMSO was administered to the control group. On the 8th day, the initial paw volume was determined by a Vernier calliper. Then, a subcutaneous injection of 40 μl formalin was introduced into the right hind paw of all groups under light ether anaesthesia. The paw volume was measured 4 h after the formalin injection and the oedema volume was calculated by the difference in paw volume before and 4 h after the formalin injection. The percentage inhibition of oedema (or % protection against inflammation) was calculated for each compound as previously reported[34]^,[35].

THP-1 cells = experiment: Monocyte-to-macrophage differentiation assay, M1 polarisation (PMA then LPS); assay type: cell-based, human
Description: Monocytes were cultured and differentiated as described previously. THP-1 cells (human acute monocytic leukaemia lineage, American Type Culture Collection, Manassas, VA) were seeded at a density of 20 × 10^5 cells/ml. A set of cells were exposed to 25 nM of phorbol myristate-acetate (PMA, Calbiochem, Darmstadt, Germany) for 24 h to drive differentiation. Another set was similarly treated with PMA followed by 100 ng/ml of lipopolysaccharide (LPS, invivogen, San Diego, CA, USA) for 72 h. After incubation, the supernatant was aspirated and the density of the adherent cells was estimated using MTS colorimetric cell viability kit (Abcam, Cambridge, UK). The inhibitory actions of different compounds on the differentiation process were evaluated by pre-incubation with different concentrations of each compound for 6 h. Cell viability after treatment was normalised to the reading after PMA exposure following a 6-h incubation with DMSO. All experiments were conducted in triplicates. A positive control for the effect of COX1/COX2 inhibition on monocyte-to-macrophage differentiation was obtained by treatment with diclofenac. IC50 values for each compound were determined by non-linear regression as the best fit values of the log [inhibitor] vs. response curve using GraphPad Prism software.

human recombinant COX-2 = target: T2, human recombinant COX-2 (Homo sapiens, UniProt P35354); experiment: In vitro COX-2 inhibition assay (colorimetric COX inhibitor screening kit, Cayman); assay type: biochemical
T2 construct: purchased Cayman Chemicals Inc. 560131
T2 sequence (P35354 18-604): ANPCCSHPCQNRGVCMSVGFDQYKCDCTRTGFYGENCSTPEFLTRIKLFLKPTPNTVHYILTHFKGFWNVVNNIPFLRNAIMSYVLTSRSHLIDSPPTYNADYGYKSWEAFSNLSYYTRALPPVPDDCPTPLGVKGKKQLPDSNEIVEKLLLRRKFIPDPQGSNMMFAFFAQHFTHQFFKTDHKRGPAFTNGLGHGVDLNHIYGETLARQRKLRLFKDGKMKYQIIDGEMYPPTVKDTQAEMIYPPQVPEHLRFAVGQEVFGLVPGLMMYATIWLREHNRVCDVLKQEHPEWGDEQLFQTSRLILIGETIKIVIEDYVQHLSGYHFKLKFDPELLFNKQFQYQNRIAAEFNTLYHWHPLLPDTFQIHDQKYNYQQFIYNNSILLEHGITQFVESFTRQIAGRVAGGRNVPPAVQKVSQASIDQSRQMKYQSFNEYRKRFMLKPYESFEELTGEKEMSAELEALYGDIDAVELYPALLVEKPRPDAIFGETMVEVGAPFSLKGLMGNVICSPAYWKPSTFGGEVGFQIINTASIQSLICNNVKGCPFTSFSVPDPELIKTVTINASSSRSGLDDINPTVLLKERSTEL
Description: as §1, §2

[3] = tested on: cotton pellet-induced granuloma; experiment: Cotton pellet-induced granuloma assay (chronic inflammation model); conditions: oral 5 mg/kg daily; pellets excised on 8th day; vs diclofenac sodium and celecoxib

COc1ccc(-c2nn(-c3ccccc3)cc2/C=C2\SC(N3CCCCC3)=NC2=O)cc1 [Compound 7, (Z)-5-((3-(4-methoxyphenyl)-1-phenyl-1H-pyrazol-4-yl)methylene)-2-(piperidin-1-yl)thiazol-4(5H)-one]
15-LOX inhibition, potency compared with quercetin (in words) (15-LOX): almost equipotent to quercetin
pIC50 (15-LOX; mean of three determinations): 5.45
M1 macrophage cell viability [1]: tended to slightly decrease
Inhibition of formalin-induced rat paw oedema (in words) [2]: as effective as either diclofenac or celecoxib
pIC50 (THP-1 cells; Homo sapiens, THP-1, 6 h pre-incubation, PMA 25 nM 24 h then LPS 100 ng/ml 72 h, MTS, read-out: IC50 inhibition of THP-1 monocyte differentiation into M1 macrophages): 4.82
Inhibition of THP-1 differentiation into M1 macrophages (in words) (THP-1 cells; PMA then LPS, diclofenac as reference): potent inhibitory effects on monocyte-to-macrophage differentiation; also recorded: higher potency compared to diclofenac
SI (COX-1/ COX-2) (human recombinant COX-2; IC50 (COX-1)/IC50 (COX-2)): 114
pIC50 (human recombinant COX-2; mean of three determinations): 7.05
Inhibition of cotton pellet granuloma weight (in words) [3]: only superior to celecoxib
